# Experimental data from ChEMBL document CHEMBL1139782, “Dual acting antioxidant A1 adenosine receptor agonists” (Bioorg Med Chem Lett, 2007).
# pKi: −log10 of the molar value. Activity calls are given as the source filed them. The calls are words filed in the database; no cut-off is given here.
# Assays:
# Adenosine receptor A1 = molecular target: T1, Adenosine receptor A1 (Homo sapiens, UniProt P30542); assay: Binding affinity to adenosine A1 receptor
# T1 sequence (P30542 whole entry): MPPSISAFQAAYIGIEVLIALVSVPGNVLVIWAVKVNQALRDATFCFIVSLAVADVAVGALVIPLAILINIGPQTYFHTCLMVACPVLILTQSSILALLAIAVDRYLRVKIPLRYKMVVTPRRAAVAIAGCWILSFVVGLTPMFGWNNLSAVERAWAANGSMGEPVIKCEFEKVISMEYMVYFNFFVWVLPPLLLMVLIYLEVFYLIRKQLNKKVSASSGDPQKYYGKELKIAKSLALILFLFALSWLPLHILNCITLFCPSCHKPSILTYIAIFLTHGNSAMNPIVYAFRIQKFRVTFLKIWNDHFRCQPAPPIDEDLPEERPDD
# Adenosine receptor A2a = Adenosine receptor A2a (Homo sapiens, UniProt P29274); assay: Binding affinity to adenosine A2A receptor
# Adenosine receptor A2a, sequence (P29274 whole entry): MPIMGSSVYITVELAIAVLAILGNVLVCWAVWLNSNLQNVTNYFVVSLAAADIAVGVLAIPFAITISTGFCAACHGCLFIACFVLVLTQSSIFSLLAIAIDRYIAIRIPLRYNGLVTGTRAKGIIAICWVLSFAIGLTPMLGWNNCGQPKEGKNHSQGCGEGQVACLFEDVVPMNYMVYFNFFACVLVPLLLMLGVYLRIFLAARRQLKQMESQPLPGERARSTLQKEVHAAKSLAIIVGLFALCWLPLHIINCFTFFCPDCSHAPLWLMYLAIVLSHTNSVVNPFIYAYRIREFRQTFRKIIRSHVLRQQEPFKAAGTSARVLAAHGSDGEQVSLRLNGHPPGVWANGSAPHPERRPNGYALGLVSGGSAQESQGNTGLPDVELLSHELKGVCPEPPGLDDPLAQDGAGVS
# Adenosine receptor A2b = molecular target: T2, Adenosine receptor A2b (Homo sapiens, UniProt P29275); assay: Binding affinity to adenosine A2B receptor
# T2 sequence (P29275 whole entry): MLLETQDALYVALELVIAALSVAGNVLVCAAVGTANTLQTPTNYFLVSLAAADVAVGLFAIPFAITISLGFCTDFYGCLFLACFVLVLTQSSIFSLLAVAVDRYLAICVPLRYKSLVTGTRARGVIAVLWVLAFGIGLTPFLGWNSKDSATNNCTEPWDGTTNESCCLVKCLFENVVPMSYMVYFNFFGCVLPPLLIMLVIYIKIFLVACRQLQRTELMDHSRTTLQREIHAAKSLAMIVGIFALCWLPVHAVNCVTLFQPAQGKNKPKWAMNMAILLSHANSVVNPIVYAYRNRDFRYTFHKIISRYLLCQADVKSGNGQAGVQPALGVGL
# Adenosine receptor A3 = molecular target: T3, Adenosine receptor A3 (Homo sapiens, UniProt P0DMS8); assay: Binding affinity to adenosine A3 receptor
# T3 sequence (P0DMS8 whole entry): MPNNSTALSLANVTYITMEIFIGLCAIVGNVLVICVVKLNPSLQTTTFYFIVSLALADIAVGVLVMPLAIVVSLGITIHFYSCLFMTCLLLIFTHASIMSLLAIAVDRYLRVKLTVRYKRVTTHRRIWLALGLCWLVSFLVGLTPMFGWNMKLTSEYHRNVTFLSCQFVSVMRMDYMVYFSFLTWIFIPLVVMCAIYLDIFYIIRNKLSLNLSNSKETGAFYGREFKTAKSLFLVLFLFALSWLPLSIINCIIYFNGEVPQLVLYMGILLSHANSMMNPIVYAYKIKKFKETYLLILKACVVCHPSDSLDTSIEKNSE
# [1] = molecular target: T4, Adenosine receptor A1 (Rattus norvegicus) (UniProt P25099); assay: Agonist activity at adenosine A1 receptor in embryonic rat H9C2 cell model of ischemia assessed as reduction of cell death at 10 nM; assay type: functional, cell-based; set-up: scale not given: the % may be the effect or the level left
# T4 sequence (whole entry): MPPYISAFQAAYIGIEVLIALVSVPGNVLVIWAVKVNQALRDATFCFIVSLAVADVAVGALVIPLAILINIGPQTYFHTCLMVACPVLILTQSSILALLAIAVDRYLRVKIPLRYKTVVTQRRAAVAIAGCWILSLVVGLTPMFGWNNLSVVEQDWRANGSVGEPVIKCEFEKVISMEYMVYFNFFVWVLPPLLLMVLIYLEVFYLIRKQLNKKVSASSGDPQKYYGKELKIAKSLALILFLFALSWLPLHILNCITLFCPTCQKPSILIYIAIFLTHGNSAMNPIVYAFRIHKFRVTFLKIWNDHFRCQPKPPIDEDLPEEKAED
# [2] = molecular target: T4, Adenosine receptor A1 (Rattus norvegicus); assay: Reversal of agonistic activity at adenosine A1 receptor in embryonic rat H9C2 cell model of ischemia assessed as reduction of cardioprotective effect in presence of DPCPX A1 antagonist; assay type: functional, tissue-based; conditions: Heart
# [3] = molecular target: Adenosine receptors; A1 & A3 (Homo sapiens) (UniProt P30542+P0DMS8); assay: Selectivity for adenosine A1 receptor over adenosine A3 receptor
SMILES,pKi (Adenosine receptor A1),pKi (Adenosine receptor A2a),pKi (Adenosine receptor A2b),pKi (Adenosine receptor A3),Activity [1] [%],Activity [2],Ratio Ki [3]
CC1(C)NC(C)(C)c2cc(Nc3ncnc4c3ncn4[C@@H]3O[C@H](CO)[C@@H](O)[C@H]3O)ccc21,6.54,< 5.00,< 5.00,6.55,,,
CC1(C)c2ccc(Nc3ncnc4c3ncn4[C@@H]3O[C@H](CO)[C@@H](O)[C@H]3O)cc2C(C)(C)N1[O],7.00,< 5.00,< 5.00,6.10,,,
CC1(C)CC(CNc2ncnc3c2ncn3[C@@H]2O[C@H](CO)[C@@H](O)[C@H]2O)C(C)(C)N1[O] (stereo not given in full),7.30,< 5.00,< 5.00,4.67,84.8,Active,
CC(C)(C)c1cc(C(=O)NCCCCCCNc2ncnc3c2ncn3[C@@H]2O[C@H](CO)[C@@H](O)[C@H]2O)cc(C(C)(C)C)c1O,7.40,< 5.00,< 5.00,7.85,,,
CC1(C)c2ccc(C(=O)NCCCCCCNc3ncnc4c3ncn4[C@@H]3O[C@H](CO)[C@@H](O)[C@H]3O)cc2C(C)(C)N1[O],7.82,< 5.00,< 5.00,7.05,,,
CC1(C)CC(Nc2ncnc3c2ncn3[C@@H]2O[C@H](CO)[C@@H](O)[C@H]2O)CC(C)(C)N1[O],7.30,< 5.00,< 5.00,5.07,,,
CC1(C)c2ccc(C(=O)NCCc3ccc(Nc4ncnc5c4ncn5[C@@H]4O[C@H](CO)[C@@H](O)[C@H]4O)cc3)cc2C(C)(C)N1[O],8.15,< 5.00,5.84,6.64,54.7,Active,3
OC[C@H]1O[C@@H](n2cnc3c(NC4CCCC4)ncnc32)[C@H](O)[C@@H]1O,,,,,86.2,Active,
CC1(C)CC(Nc2ncnc3c2ncn3[C@@H]2O[C@H](CO)[C@@H](O)[C@H]2O)CC(C)(C)N1,5.80,< 5.00,< 5.00,4.60,,,
CC(C)(C)c1cc(C(=O)NCCc2ccc(Nc3ncnc4c3ncn4[C@@H]3O[C@H](CO)[C@@H](O)[C@H]3O)cc2)cc(C(C)(C)C)c1O,7.49,< 5.00,5.07,7.08,73.2,Active,
